# US20160075689A1, “POLYMERASE, ENDONUCLEASE, AND HELICASE INHIBITORS AND METHODS OF USING THEREOF” (THE BOARD OF TRUSTEES OF THE UNIVERSITY OF ARKANSAS, priority 2013, published 2016)
# What was measured:
# LDH = LDH activity in NRK-52E cell extract; type: biochemical; settings: 0.1 μM and 10 μM
# Description: As a follow up to Example 8, the effects of the EndoG inhibitors PNR-3-80 and PNR-3-82, at 0.1 μM and 10 μM each, on the activities of four other enzymes including RNase A, protease, LDH, and SOD in NRK-52E cell extract were examined. NRK-52E cells were grown to ˜80% confluence in […]. The medium was aspirated and the cells were rinsed with ice cold 1×PBS, pH 7.4. The cells were lysed in 50 mM Tris-HCl, pH 7.4, 150 mM NaCl, 1% Triton X-100 for 10 min on ice and then briefly sonicated. Cell debris was removed by centrifugation at 13,000×g for 10 min at 4° C. The supernatant was collected and stored at −80° C. until use. LDH, Protease, Superoxide dismutase (SOD), and Ribonuclease A (RNase A) activities were measured by using CytoTox 96® Non-Radioactive Cytotoxicity Assay kit (Promega, Madison, Wis.), Protease Fluorescent Detection kit (Sigma-Aldrich, Saint Louis, Mo.), SOD determination kit (Sigma-Aldrich, Saint Louis, Mo.), and Ribonuclease A Detection kit (Sigma-Aldrich, Saint Louis, Mo.), respectively, according to the manufacturer's instructions.
# [1] = test system: EndoG-expressing PC3 cells; assay: Cytoprotection against Docetaxel-induced cell death, LDH release and TUNEL assays; type: cell-based, human; settings: Docetaxel 80 μM, inhibitor 50 μM
# Description: Docetaxel is an anti-cancer drug used to treat prostate cancer. Human invasive prostate cancer PC3 cells are known to be resistant to anticancer drugs. […] The resulting EndoG-expressing PC3 cells were exposed with Docetaxel (80 μM) in the absence or presence of the inhibitors, PNR-3-80 or PNR-3-82 (50 μM each). The cell death was measured by using two methods, LDH release assay and TUNEL assay. […]
smiles,measurement,setting,value
COc1ccc2c(c1)c(C=C1C(=O)NC(=S)NC1=O)cn2C(=O)c1ccc2ccccc2c1 [PNR-3-82],LDH activity,LDH,none of the two tested compounds had any inhibiting activity
same,cytoprotection against Docetaxel-induced cell death,[1],cytoprotective
